Assay results published in PubChem BioAssay (NCI).
Several values for one entry are separate records, joined by “and”; a condition that tells them apart may be missing. Equal values may be shown once.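 Five concentrations, 48 hours, 96-well plates. GI50 is the concentration that inhibits growth by half. TGI: concentration producing complete growth inhibition.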

What was measured:
Test in all cases: NCI tumour cell line growth inhibition, 48 h
MDA-MB-231 breast = system: MDA-MB-231 breast
MDA-MB-435 = system: MDA-MB-435
MOLT-4 leukemia = system: MOLT-4 leukemia
NCI-H23 lung = system: NCI-H23 lung
NCI-H460 lung = system: NCI-H460 lung
NCI-H522 lung = system: NCI-H522 lung
OVCAR-4 ovarian = system: OVCAR-4 ovarian
OVCAR-5 ovarian = system: OVCAR-5 ovarian
OVCAR-8 ovarian = system: OVCAR-8 ovarian
P388 leukemia = system: P388 leukemia
P388/ADR leukemia = system: P388/ADR leukemia
PC-3 prostate = system: PC-3 prostate
RXF 393 renal = system: RXF 393 renal
SF-295 CNS = system: SF-295 CNS
SK-MEL-2 melanoma = system: SK-MEL-2 melanoma
SK-MEL-28 melanoma = system: SK-MEL-28 melanoma
SK-MEL-5 melanoma = system: SK-MEL-5 melanoma
SK-OV-3 ovarian = system: SK-OV-3 ovarian
SN12C renal = system: SN12C renal
SN12K1 renal = system: SN12K1 renal
SNB-75 CNS = system: SNB-75 CNS
SNB-78 CNS = system: SNB-78 CNS
SR leukemia = system: SR leukemia
TK-10 renal = system: TK-10 renal
U251 CNS = system: U251 CNS
UACC-257 melanoma = system: UACC-257 melanoma
UACC-62 melanoma = system: UACC-62 melanoma
XF 498 CNS = system: XF 498 CNS

`CCOC(=O)C(CC(C)C)NC(=O)C(Cc1ccc(N(CCCl)CCCl)cc1)NC(C)=O` (centres undefined) was tested, and the TGI (MDA-MB-231 breast) was 23.2 µM, the TGI (MDA-MB-435) was 11.5 µM and the GI50 (MOLT-4 leukemia) was 2.04 µM and 0.307 µM. For the same compound, the TGI (MOLT-4 leukemia) was 15.5 µM and 3.31 µM, the GI50 (NCI-H23 lung) was 5.17 µM and the TGI (NCI-H23 lung) was 16.7 µM and 16.5 µM. The TGI (NCI-H460 lung) was 14.1 µM and 17.6 µM, the GI50 (NCI-H522 lung) was 2.52 µM and the TGI (NCI-H522 lung) was 8.68 µM and 3.87 µM. The GI50 (OVCAR-4 ovarian) was 16.1 µM, the TGI (OVCAR-4 ovarian) was 29.5 µM and 27.1 µM and the TGI (OVCAR-5 ovarian) was 32 µM and 33.5 µM. The GI50 (OVCAR-8 ovarian) was 12.1 µM, the TGI (OVCAR-8 ovarian) was 30.8 µM and 55.2 µM and the TGI (P388 leukemia) was 10.6 µM. It also gave a TGI (P388/ADR leukemia) of 10.5 µM, a TGI (PC-3 prostate) of 57.8 µM and a GI50 (RXF 393 renal) of 2.57 µM. For the same compound, the TGI (RXF 393 renal) was 6.75 µM and 4.46 µM, the GI50 (SF-295 CNS) was 7.89 µM and the TGI (SF-295 CNS) was 26.8 µM and 26.3 µM. For the same compound, the GI50 (SK-MEL-2 melanoma) was 1.81 µM, the TGI (SK-MEL-2 melanoma) was 4.74 µM and 5.49 µM and the GI50 (SK-MEL-28 melanoma) was 14.6 µM. The TGI (SK-MEL-28 melanoma) was 31.2 µM and 19.3 µM, the GI50 (SK-MEL-5 melanoma) was 10.6 µM and the TGI (SK-MEL-5 melanoma) was 23.5 µM and 10.7 µM. For the same compound, the GI50 (SK-OV-3 ovarian) was 21.7 µM, the TGI (SK-OV-3 ovarian) was 58.6 µM and 35.5 µM and the GI50 (SN12C renal) was 4.59 µM. The TGI (SN12C renal) was 17.2 µM and 14.6 µM, the TGI (SN12K1 renal) was 10.4 µM and the GI50 (SNB-75 CNS) was 8.51 µM. The TGI (SNB-75 CNS) was 21.7 µM and 24.9 µM, the TGI (SNB-78 CNS) was 16.6 µM and 17.8 µM and the GI50 (SR leukemia) was 1.04 µM and 0.895 µM. The TGI (SR leukemia) was 10.8 µM and 7 µM, the TGI (TK-10 renal) was 30.2 µM and 32.2 µM and the GI50 (U251 CNS) was 10.2 µM. The TGI (U251 CNS) was 26.2 µM and 27 µM, the TGI (UACC-257 melanoma) was 14 µM and 13.1 µM and the GI50 (UACC-62 melanoma) was 2.86 µM. The TGI (UACC-62 melanoma) was 12.7 µM and 7.29 µM and the TGI (XF 498 CNS) was 1.14 µM.
